Earlier results in patent US8236331B2, “Cosmetic cooling composition” (Coty Deutschland GmbH, priority 2004, dated 2012).

Settings: WO 03/007909, no period of time specified

## CCCCCCCCCCCCCCCC(=O)OC [methyl palmitate]
  cooling effect as described: long-lasting
